pIC50: −log10 of the molar value.
Tests used:
[1] = tested on: BH4 production in human peripheral blood mononuclear cells (PBMCs); assay: hPBMC assay, inhibition of BH4 production by LC-MS (anti-CD3/anti-CD28 stimulated); type: cell-based; details: PBMC, read-out: hPBMC IC50
[2] = target: SNAP-hSPR (sepiapterin reductase, SPR) (Homo sapiens, UniProt P35270); assay: biochemical; type: binding; details: terbium labelled SNAP-hSPR / SSZ labelled SNAP-EGFP; read-out: hTR-FRET IC50
[3] = tested on: BH4 levels in SK-N-BE (2) cells; assay: SKN-N-BE (2) cellular assay, BH4 levels by LC-MS; type: cell-based; details: Homo sapiens, SKNBE2, read-out: SK-N-BE(2) IC50, SK-N-BE (2) cells, BH4 levels by LC-MS

Sequence of SNAP-hSPR (sepiapterin reductase, SPR) (P35270 whole entry): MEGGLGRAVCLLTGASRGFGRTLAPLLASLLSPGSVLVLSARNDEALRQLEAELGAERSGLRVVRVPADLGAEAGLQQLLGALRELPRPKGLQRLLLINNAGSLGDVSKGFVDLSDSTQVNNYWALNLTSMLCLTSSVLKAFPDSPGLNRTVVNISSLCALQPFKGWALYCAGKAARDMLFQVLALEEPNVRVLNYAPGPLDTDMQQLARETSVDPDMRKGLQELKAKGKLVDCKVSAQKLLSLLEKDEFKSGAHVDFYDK

| SMILES | pIC50 [1] | pIC50 [2] | pIC50 [3] |
| --- | --- | --- | --- |
| Cc1cc(=O)[nH]c(-n2ncc(C(=O)N3CCc4ccccc4C3)c2C)n1 [Q-0279, 6-methyl-2-[5-methyl-4-(1,2,3,4-tetrahydroisoquinoline-2-carbonyl)-1H-pyrazol-1-yl]-3,4-dihydropyrimidin-4-one] | 5.66 | 8.15 | 6.00 |
| Cc1c(C(=O)N2CCc3ccccc3C2)cnn1-c1nc2ccsc2c(=O)[nH]1 [Q-0354] | 6.42 | 8.70 | 7.00 |
| Cc1c(C(=O)N2CCc3ccccc3C2)cnn1-c1nc2cc[nH]c2c(=O)[nH]1 [Q-0378] | 6.13 | 7.52 | 5.39 |
| Cc1c(C(=O)N2CCC(C(F)(F)F)CC2)cnn1-c1nc2ccsc2c(=O)[nH]1 [Q-0379] | 6.55 | 8.70 | 7.08 |
| Cc1c(C(=O)N2CCC(C(F)(F)F)CC2)cnn1-c1nc2c(c(=O)[nH]1)CCC2 [Q-0418] | 7.49 | 8.70 | 7.30 |
| Cc1c(C(=O)N2CCC(C(F)(F)F)CC2C)cnn1-c1nc2c(c(=O)[nH]1)CCC2 (stereo not drawn) [Q-0423] | 6.39 | 8.30 | 7.00 |
| Cc1c(C(=O)N2CCC(C(F)(F)F)CC2)cnn1-c1nc2[nH]ccc2c(=O)[nH]1 [Q-0427] | 5.96 | 8.05 | 5.51 |
| Cc1c(C(=O)N2CCC(C3CC3)CC2)cnn1-c1nc2c(c(=O)[nH]1)CCC2 [Q-0451] | 7.89 | 8.70 | 7.72 |
| Cc1c(C(=O)N2CCC2c2cncc(F)c2)cnn1-c1nn2cccc2c(=O)[nH]1 (stereo not drawn) [Q-1269] | 7.28 | 8.30 | – |
| Cc1c(C(=O)N2CCC(n3cccc3S(=O)(=O)C(F)(F)F)CC2)cnn1-c1nn2cccc2c(=O)[nH]1 [Q-1288] | 6.22 | 8.10 | – |
| Cc1c(C(=O)N2CCC(n3ccc(S(=O)(=O)C(F)(F)F)c3)CC2)cnn1-c1nn2cccc2c(=O)[nH]1 [Q-1289] | 7.15 | 8.70 | – |
| Cc1c(C(=O)N2CC3CC(C2)N3CC(F)(F)F)cnn1-c1nc2cc[nH]c2c(=O)[nH]1 [Q-1291] | 5.62 | 6.70 | – |
| Cc1c(C(=O)N2CCC2c2ccc(F)cn2)cnn1-c1nn2cccc2c(=O)[nH]1 (stereo not drawn) [Q-1301] | 6.09 | 8.00 | – |
| Cc1c(C(=O)N2CC3CC(C2)N3CC(F)(F)F)cnn1-c1nc2[nH]ccc2c(=O)[nH]1 [Q-1305] | 5.92 | 7.00 | – |
| Cc1c(C(=O)N2CCN(CC(F)(F)F)CC2)cnn1-c1nc2c(c(=O)[nH]1)COC2 [Q-1344] | 6.49 | 8.05 | – |
| Cc1c(C(=O)N2CCN(C3CCCC3(F)F)CC2)cnn1-c1nn2cccc2c(=O)[nH]1 (stereo not drawn) [Q-1362] | 7.37 | 9.00 | – |
| Cc1c(C(=O)N2CCN(S(=O)(=O)c3ccccc3)CC2)cnn1-c1nn2cccc2c(=O)[nH]1 [Q-1535] | 6.96 | 9.00 | – |
| Cc1c(C(=O)N2CCN(S(C)(=O)=O)CC2)cnn1-c1nn2cccc2c(=O)[nH]1 [Q-1539] | 6.11 | 8.40 | – |
| Cc1c(C(=O)N2CCN(S(=O)(=O)C(C)C)CC2)cnn1-c1nn2cccc2c(=O)[nH]1 [Q-1558] | 7.04 | 8.70 | – |
| CCS(=O)(=O)N1CCN(C(=O)c2cnn(-c3nn4cccc4c(=O)[nH]3)c2C)CC1 [Q-1581] | 6.77 | 8.40 | – |

| SMILES | pIC50 [1] | pIC50 [2] | pIC50 [3] |
| --- | --- | --- | --- |
| Cc1c(C(=O)N2CCN(S(=O)(=O)Cc3ccccc3)CC2)cnn1-c1nn2cccc2c(=O)[nH]1 [Q-1591] | 6.96 | 8.52 | – |
| Cc1c(C(=O)N2CCN(S(=O)(=O)CCC(F)(F)F)CC2)cnn1-c1nn2cccc2c(=O)[nH]1 [Q-1728] | 7.07 | 9.00 | – |
| Cc1c(C(=O)N2CCN(S(=O)(=O)c3cccc(C#N)c3)CC2)cnn1-c1nn2cccc2c(=O)[nH]1 [Q-1794] | 6.60 | 8.70 | – |
| Cc1c(C(=O)N2CCN(S(=O)(=O)c3ccccc3C(F)(F)F)CC2)cnn1-c1nn2cccc2c(=O)[nH]1 [Q-1796] | 6.59 | 9.00 | – |
| CCCS(=O)(=O)N1CCN(C(=O)c2cnn(-c3nn4cccc4c(=O)[nH]3)c2C)CC1 [Q-1797] | 7.10 | 9.00 | – |
| Cc1c(C(=O)N2CCN(S(=O)(=O)c3ccccc3F)CC2)cnn1-c1nn2cccc2c(=O)[nH]1 [Q-1799] | 7.00 | 9.00 | – |
| Cc1nc(C)c(S(=O)(=O)N2CCN(C(=O)c3cnn(-c4nn5cccc5c(=O)[nH]4)c3C)CC2)s1 [Q-1805] | 6.89 | 9.00 | – |
| Cc1c(C(=O)N2CCN(S(=O)(=O)c3ccc(F)cc3)CC2)cnn1-c1nn2cccc2c(=O)[nH]1 [Q-1807] | 6.96 | 9.00 | – |
| Cc1c(C(=O)N2CCN(S(=O)(=O)C3CCCCC3)CC2)cnn1-c1nn2cccc2c(=O)[nH]1 [Q-1818] | 7.02 | 9.00 | – |
| Cc1c(C(=O)N2CCN(S(=O)(=O)c3ccccc3Cl)CC2)cnn1-c1nn2cccc2c(=O)[nH]1 [Q-1819] | 7.04 | 9.00 | – |
| Cc1cc(C)c(S(=O)(=O)N2CCN(C(=O)c3cnn(-c4nn5cccc5c(=O)[nH]4)c3C)CC2)c(C)c1 [Q-1820] | 7.03 | 9.00 | – |
| Cc1c(C(=O)N2CCN(S(=O)(=O)c3cccs3)CC2)cnn1-c1nn2cccc2c(=O)[nH]1 [Q-1821] | 6.89 | 9.00 | – |
| Cc1c(C(=O)N2CCN(S(=O)(=O)c3cccc(Cl)c3)CC2)cnn1-c1nn2cccc2c(=O)[nH]1 [Q-1822] | 6.92 | 9.00 | – |
| Cc1c(C(=O)N2CCN(S(=O)(=O)c3cccc(F)c3)CC2)cnn1-c1nn2cccc2c(=O)[nH]1 [Q-1823] | 6.96 | 9.00 | – |
| Cc1c(C(=O)N2CCN(S(=O)(=O)c3c(Cl)cccc3Cl)CC2)cnn1-c1nn2cccc2c(=O)[nH]1 [Q-1836] | 6.57 | 9.00 | – |
| Cc1c(C(=O)N2CCN(S(=O)(=O)c3ccc(C#N)cc3)CC2)cnn1-c1nn2cccc2c(=O)[nH]1 [Q-1838] | 6.77 | 9.00 | – |
| Cc1c(C(=O)N2CCN(S(=O)(=O)c3cccc4ccccc34)CC2)cnn1-c1nn2cccc2c(=O)[nH]1 [Q-1841] | 7.06 | 9.00 | – |
| Cc1c(C(=O)N2CCN(S(=O)(=O)c3ccc(Cl)s3)CC2)cnn1-c1nn2cccc2c(=O)[nH]1 [Q-1842] | 6.82 | 9.00 | – |
| Cc1c(C(=O)N2CCN(S(=O)(=O)N(C)C)CC2)cnn1-c1nn2cccc2c(=O)[nH]1 [Q-1846] | 6.77 | 9.00 | – |
| Cc1c(C(=O)N2CCN(S(=O)(=O)c3ccccc3C#N)CC2)cnn1-c1nn2cccc2c(=O)[nH]1 [Q-1847] | 7.19 | 9.00 | – |

| SMILES | pIC50 [1] | pIC50 [2] | pIC50 [3] |
| --- | --- | --- | --- |
| Cc1noc(C)c1S(=O)(=O)N1CCN(C(=O)c2cnn(-c3nn4cccc4c(=O)[nH]3)c2C)CC1 [Q-1848] | 6.68 | 9.00 | – |
| Cc1c(C(=O)N2CCN(S(=O)(=O)c3cccnc3)CC2)cnn1-c1nn2cccc2c(=O)[nH]1 [Q-1857] | 6.82 | 9.00 | – |
| Cc1c(C(=O)N2CCN(S(=O)(=O)c3cc(Cl)sc3Cl)CC2)cnn1-c1nn2cccc2c(=O)[nH]1 [Q-1858] | 6.59 | 9.00 | – |
| Cc1c(C(=O)N2CCN(S(=O)(=O)c3cccc4cccnc34)CC2)cnn1-c1nn2cccc2c(=O)[nH]1 [Q-1859] | 6.80 | 9.00 | – |
| Cc1c(C(=O)N2CCN(S(=O)(=O)c3ccccc3OC(F)(F)F)CC2)cnn1-c1nn2cccc2c(=O)[nH]1 [Q-1861] | 7.01 | 9.00 | – |
| Cc1c(C(=O)N2CCN(S(=O)(=O)c3ccc(Cl)nc3)CC2)cnn1-c1nn2cccc2c(=O)[nH]1 [Q-1862] | 6.60 | 8.70 | – |
| Cc1c(C(=O)N2CCN(S(=O)(=O)c3ccc(F)cc3F)CC2)cnn1-c1nn2cccc2c(=O)[nH]1 [Q-1866] | 7.10 | 8.70 | – |
| COC(=O)c1sccc1S(=O)(=O)N1CCN(C(=O)c2cnn(-c3nn4cccc4c(=O)[nH]3)c2C)CC1 [Q-1875] | 6.96 | 9.00 | – |
| Cc1c(C(=O)N2CCN(S(=O)(=O)c3ccc(F)cc3Cl)CC2)cnn1-c1nn2cccc2c(=O)[nH]1 [Q-1876] | 6.96 | 9.00 | – |
| Cc1c(C(=O)N2CCN(S(=O)(=O)c3cccc4nsnc34)CC2)cnn1-c1nn2cccc2c(=O)[nH]1 [Q-1882] | 7.04 | 8.70 | – |
| Cc1c(C(=O)N2CCC(C(F)(F)F)CC2)c(C(N)=O)nn1-c1nc2c(c(=O)[nH]1)CCC2 [Q-1884, 5-methyl-1-(4-oxo-4,5,6,7-tetrahydro-3H-cyclopenta[d]pyrimidin-2-yl)-4-(4-(trifluoromethyl)piperidine-1-carbonyl)-1H-pyrazole-3-carboxamide] | 7.08 | 9.00 | – |
| Cc1c(C(=O)N2CCN(S(=O)(=O)C(F)(F)F)CC2)cnn1-c1nn2cccc2c(=O)[nH]1 [Q-1886] | 6.96 | 8.70 | – |
| Cc1c(C(=O)N2CCN(C(C)C(F)(F)F)CC2)nnn1-c1nn2cccc2c(=O)[nH]1 (stereo not drawn) [Q-1889] | 7.44 | 9.00 | – |
| Cc1c(C(=O)N2CCn3cccc3C2)cnn1-c1nn2cccc2c(=O)[nH]1 [Q-1925] | 6.77 | 9.00 | – |
| Cc1c(C(=O)N2CCc3[nH]ncc3C2)cnn1-c1nn2cccc2c(=O)[nH]1 [Q-1932] | 5.57 | 8.52 | – |
| Cc1c(C(=O)N2CC(c3ccnc(C(F)F)c3)C2)cnn1-c1nn2cccc2c(=O)[nH]1 [Q-2008] | 6.52 | 8.70 | – |
| Cc1c(C(=O)N2CC(c3ccnc(C(F)(F)F)c3)C2)cnn1-c1nn2cccc2c(=O)[nH]1 [Q-2009] | 6.43 | 8.70 | – |
| Cc1c(C(=O)N2CCN(CC3CCCO3)CC2)cnn1-c1nn2cccc2c(=O)[nH]1 (stereo not drawn) [Q-2016] | 7.35 | 9.00 | – |
| Cc1c(C(=O)N2CC(S(=O)(=O)c3ccccc3)C2)cnn1-c1nn2cccc2c(=O)[nH]1 [Q-2017] | 6.77 | 8.70 | – |

From patent US9963462B2 (priority 2015, dated 2018)
